Results as given in US12139461B1, “Piperidine compounds as PDE5 inhibitors” (KING SAUD UNIVERSITY, priority 2024, dated 2024).

Target: Phosphodiesterase type 5 (PDE5) (Homo sapiens (Human), UniProt O76074)
Assay: In vitro phosphodiesterase type 5 (PDE5) inhibition assay
Type: biochemical
Details: purified PDE5, IMAP FP assay

SMILES | IC50
O=S(=O)(c1ccc(Cl)cc1)N1CCC(c2ccccc2)CC1 [Compound C5] | 675 ± 13.2 nM
CC(C)c1cc(C(C)C)c(S(=O)(=O)N2CCC(c3ccccc3)CC2)c(C(C)C)c1 [Compound C7, 1-((2,4,6-tri-isiopropylphenyl)sulfonyl)-4-phenylpiperidine] | 520 ± 10.1 nM
O=S(=O)(c1ccccc1)N1CCC(c2ccccc2)CC1 [Compound C8] | 54.2 ± 1.06 nM
Cc1ccc(S(=O)(=O)N2CCC(c3ccccc3)CC2)cc1 [Compound C10] | 133 ± 2.59 nM
CC(C(=O)Nc1ccc(S(N)(=O)=O)cc1)N1CCC(Cc2ccccc2)CC1 (stereo not shown) [Compound C12, 2-(4-Benzylpiperidin-1-yl)-N-(4-sulfamoylphenyl)-2-methylacetamide] | 874 ± 17.1 nM
NS(=O)(=O)c1ccc(NC(=O)CN2CCC(Cc3ccccc3)CC2)cc1 [Compound C13, 2-(4-Benzylpiperidin-1-yl)-N-(4-sulfamoylphenyl)acetamide] | 221 ± 4.32 nM
CC(C(=O)Nc1ccc(F)cc1)N1CCC(Cc2ccccc2)CC1 (stereo not shown) [Compound C17] | 279 ± 5.43 nM
O=S(=O)(c1ccccc1)N1CCC(Cc2ccccc2)CC1 [Compound C18] | 112 ± 2.19 nM
CC(C)c1cc(C(C)C)c(S(=O)(=O)N2CCC(Cc3ccccc3)CC2)c(C(C)C)c1 [Compound C27, 1-((2,4,6-Tri-isopropylphenyl)sulfonyl)-4-Benzylpiperidine] | 143 ± 2.78 nM
O=S(=O)(c1ccc(Cl)cc1)N1CCC(Cc2ccccc2)CC1 [Compound C29] | 250 ± 4.88 nM
O=C(CN1CCC(Cc2ccccc2)CC1)NCc1ccccc1 [Compound C31] | 74.9 ± 1.46 nM
O=C(CN1CCC(Cc2ccccc2)CC1)Nc1ccc(F)cc1 [Compound C32] | 203 ± 3.95 nM
COc1cc(CNC(=O)CN2CCC(Cc3ccccc3)CC2)cc(OC)c1OC [Compound C34, 2-(4-Benzylpiperidin-1-yl)-N-(3,4,5-trimethoxybenzyl)acetamide] | 60.5 ± 1.18 nM
